According to patent US9415017B2, “Bacterial ghosts for mediating innate immunity” (priority 2010, dated 2016):

Assays:
[1] = system: NO production in RAW 264.7 cells; assay: nitrite assay (Griess reaction) for NO production; type: cell-based, murine; conditions: for impact on BG-induced NO-generation: NO after 20 hours
Experimental: RAW 264.7 cells were seeded in 96 well plates and were cultured for two days. […] Thereafter, the bacterial ghost suspensions were removed by twice washing with PBS and the cells were incubated for another 20 hours in the dark at 37° C. 5% CO2. In order to investigate the stimulatory impact of pure LPS (Fluka; E. coli serotype 055:B5), long-term incubation experiments with various LPS concentrations were conducted for 20 hours.
As an indicater of NO production, nitrite concentration was measured in the supernatant of the macrophages by use of the Griess reaction (Green et al., 1982 Anal Biochem. 126(1): p. 131-8). In short, 100 μl of each supernatant was mixed with 90 μl 1% sulphanilamide (Fluka) in 5% H3PO4 and 90 μl of N-(1-Naphthyl) ethylene diamine dihydrochloride in water. The absorbance was determined at 550 nm with an ELISA reader (Tecan Sunrise).

RAW 264.7 cells = assay: neutral red cytotoxicity assay; type: cell-based, murine
Description: The neutral red assay was used to test the impact of empty or RV-loaded BGs as well as the chemical per se on the viability of RAW 264.7 cells. Neutral red (3-amino-m-dimethylamino-2methyl-phenazine hydrochloride) selectivly accumulates in lysosomes of living cells (Repetto et al. 2008. Nat Protoc, 2008. 3(7): p. 1125-31) and provides therefore a quantitative assessment of viablitity.
Individual wells of 96-well plates were inoculated with 1.25×10^5 cells and were allowed to attach overnight. Macrophages were treated with 200 μl medium containing RV-loaded and unloaded BGs (all resuspended in sf-medium) in different BG to cell ratios (10, 100, 1000) or with RV alone for either 20 min followed by a 20 hour recovery period or 24 hours. The same conditions were performed with two RV-concentrations (15 μM and 30 μM). Triton X-100 (0.01%) served as a positive control and cells treated with test medium represent the negative control. After treatment, the cells were washed twice with PBS and were incubated either with culture medium for 20 hours or directly with 100 μl of NR (80 μg/ml final concentration) for another two hours (37° C.; 5% CO2). Thereafter, the dye was discarded and the wells were washed two times with PBS. Extraction of the dye was accomplished by addition of 100 μl of the acidic destaining solution (1 ml acetic acid, 73 ml 96% ethanol and 26 ml deionized water). The plates were shaken for 10 min and the developed color was measured by a plate reader (Dynex OpsysMR) at 570 nm (reference wavelength 690 nm).

## Oc1ccc(C=Cc2cc(O)cc(O)c2)cc1 [RV, resveratrol]
[1]; 0.3 μM and 0.3 μM RV with empty BGs at ratio 500, 20 min
  impact on BG-induced NO-generation: no impact
[1]; 30 μM RV with empty BGs at ratio 500, 20 min
  impact on BG-induced NO-generation: Statistically significant difference
[1]; BG to cell ratio of 100, RV-loaded ghosts or 3 μM RV with empty BGs
  reduction of nitrite compared to empty BGs alone: no effect
[1]; MOI of 1000, RV-ghosts or 3 μM RV coevally with empty BGs
  reduction of NO compared to empty BGs alone: reduction
RAW 264.7 cells; 15 μM RV
  cell viability: no impact at all
RAW 264.7 cells; 30 μM RV
  cell viability: 81.23 ± 10.6%
  loss of viability: 20%
RAW 264.7 cells; short-term coincubation (20 min, measured after 20 hours)
  cell viability: no effects
